According to patent US10662159B2, “ABHD6 and dual ABHD6/MGL inhibitors and their uses” (MAKScientific, LLC, priority 2017, dated 2020):

Columns and labels:
Format in all cases: biochemical
hFAAH = hFAAH (Homo sapiens (Human), UniProt O00519); assay: Fluorescent assay for hFAAH; conditions: MBP ΔTM hFAAH, procedure as for rFAAH; read-out: hFAAH Inhibition IC50
Method: (§1) Certain compounds were tested for their ABHD6 and dual ABHD6/MGL inhibitory activity, which is expressed as % of inhibition or IC50 values in Table 1. The percentage of inhibition describes the percentage by which the inhibitor reduces the velocity/rate of 2-AG hydrolysis by ABHD6, and MGL or AEA hydrolysis by FAAH. The IC50 is the concentration of the inhibitor, which results in 50% inhibition of the velocity/rate of 2-AG hydrolysis by ABHD6 or MGL. The IC50 is the concentration of the inhibitor, which results in 50% inhibition of the velocity/rate of AEA hydrolysis by FAAH. The lower the IC50 values, the higher its inhibitory activity. A detailed description of the methods used to test inhibitory activity of compounds is given below.
Example 80. Preparation of Human FAAH in Fusion with N-Terminal Maltose Binding Tag (MBP ΔTM hFAAH)
Human FAAH without putative transmembrane domain following maltose binding protein was expressed in E. coli cells using pMALcE4 vector Alapafuja et al J. Med. Chem. (2012) 55: 10074-89.
(§2) The fluorescence reading at the 3 hour time point (linear enzyme kinetics) was used to calculate percent inhibition based on control assays without inhibitor present. All FAAH assays were performed in triplicate for each inhibitor concentration, and IC50 values determined using Prizm software (GraphPad Software, Inc.).
Example 82. Fluorescent Assay Protocol for hFAAH
Procedure was followed as described for rFAAH.

hABHD6 = hABHD6 (Homo sapiens (Human), UniProt Q9BV23); assay: Fluorescent assay for hABHD6 (AHMMCE substrate hydrolysis); conditions: membrane fraction containing full-length hABHD6, 20 μM AHMMCE; read-out: ABHD6 Inhibition IC50
Method: (§3) Certain compounds were tested for their ABHD6 and dual ABHD6/MGL inhibitory activity, which is expressed as % of inhibition or IC50 values in Table 1. The percentage of inhibition describes the percentage by which the inhibitor reduces the velocity/rate of 2-AG hydrolysis by ABHD6, and MGL or AEA hydrolysis by FAAH. […] The lower the IC50 values, the higher its inhibitory activity. A detailed description of the methods used to test inhibitory activity of compounds is given below.
Fluorescent Assays Protocol for hABHD6
Initial Fluorescent Inhibition Assay (3-Point)—
In each well of a 96-well plate 8 μL of membrane fraction containing full-length hABHD6 (1 μg total protein) was mixed with 168 μL of assay buffer (50 mM Tris-HCl, pH 7.6), and 20 μL of diluted compound (diluted in a dilution buffer consisting of 50% DMSO/50% assay buffer v/v). Each plate was incubated at RT for 15 minutes before adding 4 μL of 1 mM AHMMCE substrate (final concentration of 20 μM AHMMCE and final volume of 200 μL). The reaction was allowed to proceed for 1 hr at RT before the fluorescence was read at λex 360 nm and λem 460 nm and the inhibition calculated. Each experiment can test 8 compounds at three concentrations (usually 10 μM, 1 μM, and 100 nM).
IC50 Determination Assay (8-Point)—
A more detailed assay with an extended range tests compounds over 8 concentrations depending on the pre-determined approximate IC50 value from the initial screen. […] The assay was conducted in 96 well plate with each well containing the same reaction mixture detailed above in the 3-point screen. The relative fluorescence is quantified into coumarin produced by using a standard curve of HMMC in triplicate on each plate. Results are normalized to the negative control wells and the IC50 is determined using a non-linear regression curve fit in Prism, version 5 (GraphPad, San Diego, Calif.).

hMGL = hMGL (Homo sapiens (Human), UniProt Q99685); assay: Fluorescent assay for hMGL (AHMMCE substrate hydrolysis); conditions: E. coli lysate containing hMGL, read-out: hMGL Inhibition IC50
Method: as §3
Preparation of Human MAGL (hMAGL)
Fluorescent Assay Protocol for hMGL
This medium throughput assay involved a 96-well plate format in which hMGL activity was monitored by the hydrolysis of the substrate […] (AHMMCE) to form the fluorescent product, coumarin. […] Upon the addition of AHMMCE, the reaction was incubated at 25° C. for 120 min; fluorescence readings were taken every 15 min at 360 nm/460 nm (λexcitation/λemission) using a Synergy HT Plate Reader (Bio-Tek, Winooski, Vt.). […] External standards were used to convert relative fluorescence units to the amount of 4-methylcoumarin formed. All MGL assays were performed in triplicate for each inhibitor concentration, and IC50 values were calculated using Prizm software (GraphPad Software, Inc., San Diego, Calif.).

Rat ΔTM FAAH = Rat ΔTM FAAH (Rattus norvegicus (Rat), UniProt P97612); assay: Fluorescent assay for rat ΔTM FAAH (AAMCA substrate); conditions: ΔTM rFAAH, AAMCA 20 μM; read-out: rFAAH Inhibition IC50
Method: as §1
Example 79. Preparation of Transmembrane Domain-Deleted Rat FAAH (ΔTM rFAAH)
Rat ΔTM FAAH was expressed in E. coli cells and purified using the procedure disclosed by Patricelli et al. Biochemistry (1998) 37: 15177-15187.
Example 81. Fluorescent Assay Protocol for Rat ΔTM FAAH
as §2

Chain of hMGL (Q99685 whole entry): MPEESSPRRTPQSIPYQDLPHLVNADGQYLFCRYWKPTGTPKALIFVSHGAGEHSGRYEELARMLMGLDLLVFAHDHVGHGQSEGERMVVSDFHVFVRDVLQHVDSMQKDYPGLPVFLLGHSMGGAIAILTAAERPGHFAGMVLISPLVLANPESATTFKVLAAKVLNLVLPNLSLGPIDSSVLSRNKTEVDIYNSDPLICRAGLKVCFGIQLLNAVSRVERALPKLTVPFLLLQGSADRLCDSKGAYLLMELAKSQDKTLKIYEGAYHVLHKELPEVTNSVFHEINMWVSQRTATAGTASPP
Chain of hABHD6 (Q9BV23 whole entry): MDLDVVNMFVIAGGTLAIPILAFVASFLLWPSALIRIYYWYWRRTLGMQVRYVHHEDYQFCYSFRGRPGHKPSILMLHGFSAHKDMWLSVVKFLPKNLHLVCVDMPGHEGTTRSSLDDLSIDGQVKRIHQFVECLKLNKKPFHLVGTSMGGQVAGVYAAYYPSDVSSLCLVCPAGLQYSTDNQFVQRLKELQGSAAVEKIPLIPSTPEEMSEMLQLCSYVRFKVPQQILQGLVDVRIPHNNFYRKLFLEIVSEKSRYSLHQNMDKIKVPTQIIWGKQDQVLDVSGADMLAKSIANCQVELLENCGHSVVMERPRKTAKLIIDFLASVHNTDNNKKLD
Chain of Rat ΔTM FAAH (P97612 30-579): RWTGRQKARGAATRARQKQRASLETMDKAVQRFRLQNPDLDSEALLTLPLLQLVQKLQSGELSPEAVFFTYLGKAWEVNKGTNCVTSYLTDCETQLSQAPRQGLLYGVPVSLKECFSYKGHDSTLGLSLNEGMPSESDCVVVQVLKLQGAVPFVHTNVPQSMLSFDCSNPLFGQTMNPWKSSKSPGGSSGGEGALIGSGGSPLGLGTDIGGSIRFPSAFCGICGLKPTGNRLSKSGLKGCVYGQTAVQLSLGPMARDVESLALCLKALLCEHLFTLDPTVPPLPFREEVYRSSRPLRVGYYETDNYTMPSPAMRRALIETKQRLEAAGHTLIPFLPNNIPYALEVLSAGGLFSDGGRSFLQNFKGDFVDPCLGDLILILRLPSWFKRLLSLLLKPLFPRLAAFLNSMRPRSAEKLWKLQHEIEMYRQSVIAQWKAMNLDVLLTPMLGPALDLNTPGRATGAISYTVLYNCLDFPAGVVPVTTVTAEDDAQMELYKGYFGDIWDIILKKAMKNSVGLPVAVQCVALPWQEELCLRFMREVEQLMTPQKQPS
Chain of hFAAH (O00519 30-579): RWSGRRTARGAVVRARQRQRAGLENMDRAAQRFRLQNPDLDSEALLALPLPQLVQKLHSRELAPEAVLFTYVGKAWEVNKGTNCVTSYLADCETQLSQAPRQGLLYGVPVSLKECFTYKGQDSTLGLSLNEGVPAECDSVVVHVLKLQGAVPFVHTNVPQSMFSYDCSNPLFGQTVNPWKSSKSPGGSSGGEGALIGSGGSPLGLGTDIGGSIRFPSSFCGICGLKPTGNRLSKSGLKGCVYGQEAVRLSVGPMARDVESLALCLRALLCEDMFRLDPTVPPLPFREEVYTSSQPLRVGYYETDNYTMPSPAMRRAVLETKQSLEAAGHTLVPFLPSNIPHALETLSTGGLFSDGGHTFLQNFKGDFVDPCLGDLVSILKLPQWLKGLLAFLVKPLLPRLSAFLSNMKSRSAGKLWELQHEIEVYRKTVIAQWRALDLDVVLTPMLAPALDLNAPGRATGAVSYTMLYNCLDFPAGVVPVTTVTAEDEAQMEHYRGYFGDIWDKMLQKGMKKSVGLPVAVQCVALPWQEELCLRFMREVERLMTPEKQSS

SMILES	IC50 (hFAAH)	IC50 (hABHD6)	IC50 (hMGL)	IC50 (Rat ΔTM FAAH)
CC1c2ccccc2CCN1C(=O)OC(C(F)(F)F)C(F)(F)F (racemic) [Example 6, 1,1,1,3,3,3-Hexafluoropropan-2-yl 1-methyl-3,4-dihydroisoquinoline-2(1H)-carboxylate]	> 1 µM	> 1 µM	> 1 µM	> 1 µM
CCC1c2ccccc2CCN1C(=O)OC(C(F)(F)F)C(F)(F)F (racemic) [Example 7, 1,1,1,3,3,3-Hexafluoropropan-2-yl 1-ethyl-3,4-dihydroisoquinoline-2(1H)-carboxylate]	> 1 µM	> 1 µM	> 1 µM	> 1 µM
O=C(OC(C(F)(F)F)C(F)(F)F)N1CCc2ccccc2C1 [Example 1, 1,1,1,3,3,3-Hexafluoropropan-2-yl 3,4-dihydroisoquinoline-2(1H)-carboxylate]	> 1 µM	0.01 to 0.1 µM	> 1 µM	> 1 µM
O=C(OC(C(F)(F)F)C(F)(F)F)N1CCc2ccccc2[C@H]1c1ccccc1 [Example 2, 1,1,1,3,3,3-Hexafluoropropan-2-yl(R)-1-phenyl-3,4-dihydroisoquinoline-2(1H)-carboxylate]	> 1 µM	> 1 µM	> 1 µM	> 1 µM
O=C(OC(C(F)(F)F)C(F)(F)F)N1CCc2ccccc2[C@@H]1c1ccccc1 [Example 3, 1,1,1,3,3,3-Hexafluoropropan-2-yl (S)-1-phenyl-3,4-dihydroisoquinoline-2(1H)-carboxylate]	> 1 µM	> 1 µM	> 1 µM	> 1 µM
O=C(OC(C(F)(F)F)C(F)(F)F)N1CCc2cccc(Br)c2C1 [Example 4, 1,1,1,3,3,3-Hexafluoropropan-2-yl 8-bromo-3,4-dihydroisoquinoline-2(1H)-carboxylate]	> 1 µM	0.01 to 0.1 µM	> 1 µM	> 1 µM
O=C(OC(C(F)(F)F)C(F)(F)F)N1Cc2ccc(Br)cc2C1 [Example 8, 1,1,1,3,3,3-Hexafluoropropan-2-yl 5-bromoisoindoline-2-carboxylate]	> 1 µM	0.01 to 0.1 µM	> 1 µM	> 1 µM
COc1ccc2c(c1)CN(C(=O)OC(C(F)(F)F)C(F)(F)F)C2 [Example 9, 1,1,1,3,3,3-Hexafluoropropan-2-yl 5-methoxyisoindoline-2-carboxylate]	> 1 µM	0.01 to 0.1 µM	> 1 µM	> 1 µM
O=C(OC(C(F)(F)F)C(F)(F)F)N1CCc2cc(Br)ccc21 [Example 10, 1,1,1,3,3,3-Hexafluoropropan-2-yl 5-bromoindoline-1-carboxylate]	> 1 µM	0.1 to 1 µM	> 1 µM	> 1 µM
O=C(OC(C(F)(F)F)C(F)(F)F)N1Cc2cc(Br)cnc2C1 [Example 11, 1,1,1,3,3,3-Hexafluoropropan-2-yl 3-bromo-5,7-dihydro-6H-pyrrolo[3,4-b]pyridine-6-carboxylate]	> 1 µM	0.1 to 1 µM	> 1 µM	> 1 µM
O=C(OC(C(F)(F)F)C(F)(F)F)N1Cc2cccc(Br)c2C1 [Example 12, 1,1,1,3,3,3-Hexafluoropropan-2-yl 4-bromoisoindoline-2-carboxylate]	> 1 µM	0.1 to 1 µM	> 1 µM	> 1 µM
CC1Cc2ccccc2CN1C(=O)OC(C(F)(F)F)C(F)(F)F (stereo not drawn) [Example 13, 1,1,1,3,3,3-Hexafluoropropan-2-yl 3-methyl-3,4-dihydroisoquinoline-2(1H)-carboxylate]	> 1 µM	> 1 µM	> 1 µM	> 1 µM
O=C(OC(C(F)(F)F)C(F)(F)F)N1CCc2c(cccc2OCCCF)C1 [Example 41, 1,1,1,3,3,3-Hexafluoropropan-2-yl 5-(3-fluoropropoxy)-3,4-dihydroisoquinoline-2(1H)-carboxylate]	–	0.01 to 0.1 µM	> 1 µM	> 1 µM
O=C(OC(C(F)(F)F)C(F)(F)F)N1Cc2ccc(OCCCF)cc2C1 [Example 42, 1,1,1,3,3,3-Hexafluoropropan-2-yl 5-(3-fluoropropoxy)isoindoline-2-carboxylate]	–	0.01 to 0.1 µM	> 1 µM	> 1 µM
O=C(OC(C(F)(F)F)C(F)(F)F)N1Cc2ccc(OCC3CC3)cc2C1 [Example 43, 1,1,1,3,3,3-Hexafluoropropan-2-yl 5-(cyclopropylmethoxy)isoindoline-2-carboxylate]	–	0.01 to 0.1 µM	> 1 µM	> 1 µM
O=C(OC(C(F)(F)F)C(F)(F)F)N1Cc2ccc(OCCN3CCOCC3)cc2C1 [Example 44, 1,1,1,3,3,3-Hexafluoropropan-2-yl 5-(2-morpholinoethoxy)isoindoline-2-carboxylate]	–	0.1 to 1 µM	> 1 µM	> 1 µM
CN(C)CCOc1ccc2c(c1)CN(C(=O)OC(C(F)(F)F)C(F)(F)F)C2 [Example 46, 1,1,1,3,3,3-Hexafluoropropan-2-yl 5-(2-(dimethylamino)ethoxy)isoindoline-2-carboxylate]	–	0.01 to 0.1 µM	0.01 to 0.1 µM	> 1 µM
O=C(OC(C(F)(F)F)C(F)(F)F)N1Cc2ccc(NCCN3CCOCC3)cc2C1 [Example 47, 1,1,1,3,3,3-Hexafluoropropan-2-yl 5-((2-morpholinoethyl)amino)isoindoline-2-carboxylate]	–	0.01 to 0.1 µM	> 1 µM	> 1 µM
O=C(OC(C(F)(F)F)C(F)(F)F)N1Cc2ccc(OCCN3CCCCC3)cc2C1 [Example 48, 1,1,1,3,3,3-Hexafluoropropan-2-yl 5-(2-(piperidin-1-yl)ethoxy)isoindoline-2-carboxylate]	–	0.01 to 0.1 µM	0.01 to 0.1 µM	> 1 µM
O=C(OC(C(F)(F)F)C(F)(F)F)N1Cc2ccc(OCCN3CCCC3)cc2C1 [Example 49, 1,1,1,3,3,3-Hexafluoropropan-2-yl 5-(2-(pyrrolidin-1-yl)ethoxy)isoindoline-2-carboxylate]	–	0.01 to 0.1 µM	0.01 to 0.1 µM	> 1 µM
O=C(COc1ccc2c(c1)CN(C(=O)OC(C(F)(F)F)C(F)(F)F)C2)N1CCOCC1 [Example 50, 1,1,1,3,3,3-Hexafluoropropan-2-yl 5-(2-morpholino-2-oxoethoxy)isoindoline-2-carboxylate]	–	0.01 to 0.1 µM	0.01 to 0.1 µM	> 1 µM
O=C(OC(C(F)(F)F)C(F)(F)F)N1CC2(CCC(Oc3cccc(F)c3)C2)C1 (stereo not drawn) [Example 59, 1,1,1,3,3,3-Hexafluoropropan-2-yl 6-(3-fluorophenoxy)-2-azaspiro[3.4]octane-2-carboxylate]	–	0.01 to 0.1 µM	0.01 to 0.1 µM	0.01 to 0.1 µM
